Test [1] has as its system human TNBC BM1 cells. In words: Relative CCL5 mRNA in BM1 cells treated with JQ1. The test is classed as cell-based. Conditions: 300 nM JQ1, GAPDH loading control. The procedure:
(§1) FIG. 21: Relative levels of HMGA2 (first bar of each set) and CCL5 (second bar of each set) are shown for the human triple-negative BM1 cell line (top) and the mouse basal-like breast cancer M6C cell line (bottom) treated with the bromodomain inhibitor JQ1, known to block HMGA2 activity. Relative levels of mRNA were calculated using the formula RQ=2-^˜˜CT with GAPDH as the loading control*0.05>p>0.01 ***0.001>p.
(§2) To overcome resistance to Maraviroc and increased CCL5 levels, the inventors are treating the tumor cells with JQ1, a bromodomain inhibitor which regulates HMGA2. HMGA2 is an upstream regulator of CCL5. Additionally, both genes expression levels are included in our prognostic signature. […] We plan to in the future test whether JQ1 in conjunction with Maraviroc are able to lead to a reduction in metastasis in a mouse model.

In test [2] the test system is mouse basal-like M6C cells. In words: Relative CCL5 mRNA in M6C cells treated with JQ1. Format: cell-based. Conditions: 300 nM JQ1, GAPDH loading control. The procedure: as §1, §2
Test [3] has as its system CCL7. Conditions: TAMs isolated from treated mice. The procedure:
(§3) FIG. 20A-F: A) Final tumor weights shown for nude mice treated with the anti-Progranulin neutralizing antibody A23 alone or in combination with the CCR5 inhibitor Maraviroc for 21 days starting at day 3. B) The corresponding growth curves for the treated mice. Tumor volume is calculated as (π/6)*length2*width C) To measure the _rst step of metastasis we examine the relative number of tumor cells intravasating into the blood stream. This is calculated as the relative amount of human GAPDH compared to mouse Gapdh mRNA from cells isolated from blood after treatment. D) Tumor-associated macrophages were isolated from treated mice and qRT-PCR was performed to determine the relative amount of mRNA with Gapdh serving as the loading control; each set of four bars is data from the control, A23, Maraviroc, and A23+Maraviroc, respectively. E-F) Tumor cells were isolated from tumors stripped of mouse cells. RNA was collected and Relative CCL5 and Progranulin (GRN) were calculated with GAPDH as a loading control. *0.05>p>0.01 ** 0.01>p>0.001

In test [4] the test system is CCL5. Conditions: tumor cells isolated from treated mice. The method, then: as §3
In test [5] the test system is tumors in nude mice. In words: Treatment of tumor-bearing nude mice with A23 and/or Maraviroc (tumor weight, growth, intravasation). Conditions: agent alone; nude mice treated for 21 days starting at day 3. Format: in vivo, mouse. From the text:
B) The corresponding growth curves for the treated mice.

The values below come from patent US20180104232A1, “METHODS FOR DETERMINING PROGNOSIS FOR BREAST CANCER PATIENTS” (The University of Chicago, priority 2015, published 2018).

Consider `Cc1sc2c(c1C)C(c1ccc(Cl)cc1)=N[C@@H](CC(=O)OC(C)(C)C)c1nnc(C)n1-2` [JQ1], for which the CCL5 expression entry in test [1] and in test [2] was “significant reduction” each time.

For the compound Maraviroc, the “CCL7 in the tumor-associated macrophages” value in test [3] was “more CCL7”. Moreover, the “CCL5 secreted by tumor cells in response to therapy” value in test [4] is given as “more CCL5”. For the same compound, the “effectiveness of treatment in tumor-bearing mice” value in test [5] is reported as “not effective”.
